Experimental data as given in PubChem BioAssay (NCI).
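Growth conditions: 96-well plates. Treatment: test compound, 48 hours, 5 concentrations. Analysis: linear interpolation between bracketing concentrations; unreached endpoints set to highest concentration. TGI: total growth inhibition.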

Legend:
Assay in all cases: growth of human tumour cells (NCI), 48 h
RXF 393 renal = test system: RXF 393 renal
UACC-62 melanoma = test system: UACC-62 melanoma
COLO 205 colon = test system: COLO 205 colon
SK-MEL-5 melanoma = test system: SK-MEL-5 melanoma
RPMI-8226 leukemia = test system: RPMI-8226 leukemia
M14 melanoma = test system: M14 melanoma
SW-620 colon = test system: SW-620 colon
UO-31 renal = test system: UO-31 renal
HCT-116 colon = test system: HCT-116 colon
HS 578T breast = test system: HS 578T breast
T-47D breast = test system: T-47D breast
NCI/ADR-RES ovarian = test system: NCI/ADR-RES ovarian
MDA-MB-435 = test system: MDA-MB-435
MDA-N = test system: MDA-N

O=[N+]([O-])c1ccc(N=P(c2ccccc2)(c2ccccc2)c2ccccc2)n2nnnc12
TGI (RXF 393 renal): > 100 µM | TGI (UACC-62 melanoma): > 100 µM | TGI (COLO 205 colon): > 100 µM | TGI (SK-MEL-5 melanoma): > 100 µM | TGI (RPMI-8226 leukemia): > 100 µM | TGI (M14 melanoma): > 100 µM | TGI (SW-620 colon): > 100 µM | TGI (UO-31 renal): > 100 µM

O=C(CC(C(=O)c1ccsc1)c1cccs1)c1cccs1 (stereo unspecified)
TGI (RXF 393 renal): > 100 µM | TGI (UACC-62 melanoma): > 100 µM | TGI (COLO 205 colon): > 100 µM | TGI (SK-MEL-5 melanoma): 85.6 µM | TGI (HCT-116 colon): > 100 µM | TGI (RPMI-8226 leukemia): > 100 µM | TGI (M14 melanoma): > 100 µM | TGI (SW-620 colon): > 100 µM | TGI (UO-31 renal): 92.7 µM

COC(=O)[C@@H]1CN(C(=O)Cc2ccccc2)C(=O)N1
TGI (RXF 393 renal): > 100 µM | TGI (UACC-62 melanoma): > 100 µM | TGI (COLO 205 colon): > 100 µM | TGI (HS 578T breast): > 100 µM | TGI (SK-MEL-5 melanoma): > 100 µM | TGI (HCT-116 colon): > 100 µM | TGI (RPMI-8226 leukemia): > 100 µM | TGI (T-47D breast): > 100 µM | TGI (NCI/ADR-RES ovarian): > 100 µM | TGI (M14 melanoma): > 100 µM | TGI (SW-620 colon): > 100 µM | TGI (MDA-MB-435): > 100 µM | TGI (UO-31 renal): > 100 µM

Clc1ccc(Cc2nc3cc4ccccc4cc3[nH]2)cc1Cl
TGI (RXF 393 renal): 40.2 µM | TGI (UACC-62 melanoma): 34.2 µM | TGI (COLO 205 colon): > 100 µM | TGI (HS 578T breast): 64.5 µM | TGI (SK-MEL-5 melanoma): 20.4 µM | TGI (HCT-116 colon): > 100 µM | TGI (RPMI-8226 leukemia): > 100 µM | TGI (T-47D breast): 39.7 µM | TGI (NCI/ADR-RES ovarian): 96.4 µM | TGI (M14 melanoma): 75.3 µM | TGI (SW-620 colon): 41.3 µM | TGI (MDA-MB-435): 49.3 µM | TGI (UO-31 renal): 28.5 µM

COC(OC)c1cccc2c1C(=O)CCC1(CC2)OCCCCO1
TGI (RXF 393 renal): > 100 µM | TGI (UACC-62 melanoma): > 100 µM | TGI (COLO 205 colon): > 100 µM | TGI (SK-MEL-5 melanoma): > 100 µM | TGI (HCT-116 colon): > 100 µM | TGI (RPMI-8226 leukemia): > 100 µM | TGI (M14 melanoma): > 100 µM | TGI (SW-620 colon): > 100 µM | TGI (UO-31 renal): > 100 µM

Cc1ccc(-c2ccc3c(c2)Sc2ccccc2O3)n1C
TGI (RXF 393 renal): 11.4 µM | TGI (COLO 205 colon): 2.12 µM | TGI (HS 578T breast): > 100 µM | TGI (SK-MEL-5 melanoma): 39.1 µM | TGI (HCT-116 colon): > 100 µM | TGI (RPMI-8226 leukemia): 0.706 µM | TGI (T-47D breast): > 100 µM | TGI (NCI/ADR-RES ovarian): 12.6 µM | TGI (M14 melanoma): > 65.4 µM | TGI (SW-620 colon): > 100 µM | TGI (UO-31 renal): > 68.5 µM

O=C1C=C2SC3C[C@@]24CC1(O)[N+]1=c2c4c(c(O)c4c2=C(C=N4)CC1)N3
TGI (RXF 393 renal): 2.71 µM | TGI (UACC-62 melanoma): 1.51 µM | TGI (COLO 205 colon): 0.332 µM | TGI (SK-MEL-5 melanoma): 2.91 µM | TGI (HCT-116 colon): 0.492 µM | TGI (RPMI-8226 leukemia): 1.62 µM | TGI (NCI/ADR-RES ovarian): 2.78 µM | TGI (SW-620 colon): 0.809 µM | TGI (UO-31 renal): 3.48 µM

COC1=CC(=O)[C@@]2(C)C(C)[C@H](c3ccccc3)[C@H]2C1=O (stereo partly specified)
TGI (RXF 393 renal): > 100 µM | TGI (UACC-62 melanoma): > 100 µM | TGI (COLO 205 colon): > 100 µM | TGI (SK-MEL-5 melanoma): > 100 µM | TGI (RPMI-8226 leukemia): > 100 µM | TGI (M14 melanoma): > 100 µM | TGI (SW-620 colon): > 100 µM | TGI (UO-31 renal): > 100 µM

Cc1cc2nc3c(N)nn(CCCN(C)C)c3nc2cc1C
TGI (RXF 393 renal): > 100 µM | TGI (UACC-62 melanoma): > 100 µM | TGI (COLO 205 colon): > 100 µM | TGI (HS 578T breast): > 100 µM | TGI (SK-MEL-5 melanoma): > 100 µM | TGI (HCT-116 colon): > 100 µM | TGI (RPMI-8226 leukemia): > 100 µM | TGI (T-47D breast): > 100 µM | TGI (NCI/ADR-RES ovarian): > 100 µM | TGI (M14 melanoma): > 100 µM | TGI (SW-620 colon): > 100 µM | TGI (MDA-MB-435): > 100 µM | TGI (UO-31 renal): > 100 µM

O=C1OCc2nc3c(c(-c4ccccc4C(F)(F)F)c21)C(=O)OC3
TGI (RXF 393 renal): > 100 µM | TGI (UACC-62 melanoma): > 100 µM | TGI (COLO 205 colon): > 100 µM | TGI (SK-MEL-5 melanoma): > 100 µM | TGI (HCT-116 colon): > 100 µM | TGI (RPMI-8226 leukemia): > 100 µM | TGI (M14 melanoma): > 100 µM | TGI (SW-620 colon): > 100 µM | TGI (UO-31 renal): > 100 µM

COc1cc2c(c(O)c1OC)C(O)C1CCC(=O)N1C2c1ccc2c(c1)OCO2 (stereo unspecified)
TGI (RXF 393 renal): > 100 µM | TGI (UACC-62 melanoma): > 100 µM | TGI (COLO 205 colon): > 100 µM | TGI (HCT-116 colon): > 100 µM | TGI (T-47D breast): > 100 µM | TGI (NCI/ADR-RES ovarian): > 100 µM | TGI (M14 melanoma): > 100 µM | TGI (SW-620 colon): > 100 µM | TGI (MDA-MB-435): > 100 µM | TGI (UO-31 renal): > 100 µM

CCC(C)C(NC(=O)c1cccc2c(=O)c3ccccc3[nH]c12)C(=O)O (stereo unspecified)
TGI (UACC-62 melanoma): > 100 µM | TGI (COLO 205 colon): > 100 µM | TGI (HS 578T breast): > 100 µM | TGI (SK-MEL-5 melanoma): > 100 µM | TGI (MDA-N): > 100 µM | TGI (HCT-116 colon): > 100 µM | TGI (RPMI-8226 leukemia): > 100 µM | TGI (NCI/ADR-RES ovarian): > 100 µM | TGI (M14 melanoma): > 100 µM | TGI (SW-620 colon): > 100 µM | TGI (MDA-MB-435): > 100 µM | TGI (UO-31 renal): > 100 µM

Cc1cc2c3ccccc3n3c2c2c1OC1(C)CCC(C2C1)C3(C)C (stereo unspecified)
TGI (UACC-62 melanoma): > 25 µM | TGI (COLO 205 colon): > 25 µM | TGI (SK-MEL-5 melanoma): > 25 µM | TGI (HCT-116 colon): > 25 µM | TGI (RPMI-8226 leukemia): > 25 µM | TGI (M14 melanoma): > 25 µM | TGI (SW-620 colon): > 25 µM | TGI (UO-31 renal): > 25 µM

CCN(CC)C(=O)Cc1[nH][nH]c(=O)c1C(=O)N(CC)CC
TGI (RXF 393 renal): > 100 µM | TGI (UACC-62 melanoma): > 100 µM | TGI (COLO 205 colon): > 100 µM | TGI (HCT-116 colon): > 100 µM | TGI (RPMI-8226 leukemia): > 100 µM | TGI (M14 melanoma): > 100 µM | TGI (SW-620 colon): > 100 µM | TGI (UO-31 renal): > 100 µM

COc1ccc2nc(-c3ccc(N)cc3)sc2c1
TGI (RXF 393 renal): > 100 µM | TGI (UACC-62 melanoma): > 100 µM | TGI (COLO 205 colon): > 100 µM | TGI (HS 578T breast): > 100 µM | TGI (SK-MEL-5 melanoma): > 100 µM | TGI (HCT-116 colon): > 100 µM | TGI (NCI/ADR-RES ovarian): > 100 µM | TGI (M14 melanoma): > 100 µM | TGI (SW-620 colon): > 100 µM | TGI (MDA-MB-435): > 100 µM | TGI (UO-31 renal): > 100 µM
